Measured values reported in patent US10624914B2, “Methods for determining the level of hyposialylation of Angptl4” (priority 2010, dated 2020).
“Also recorded” adds a separate entry of the source.

Key:
mouse Angptl4 promoter = experiment: Angptl4 promoter-reporter (SEAP) study in HEK 293 cells and GECs; assay type: cell-based; details: mifepristone 2×10^−5 M, glucocorticoid receptor antagonist
Method: We conducted 5′ RACE and primer extension analysis using mouse kidney mRNA and confirmed the same transcriptional start site in the kidney. Next, a 2 Kb fragment upstream of the transcriptional start site was clone using BAC clone RP23-27D5 as a template into pSEAP2 basic. A 2 Kb human Angptl4 promoter constructs were similarly generated using BAC clone RP11-886P16.
Incubation of HEK 293 cells and GECs transfected with Angptl4-pSEAP or empty vector promoter—reporter constructs for mouse Angptl4 with dexamethasone (10^−3 M) show a decline in SEAP activity at 48 hours. This decline in activity is mediated via the glucocorticoid receptor, since it is reversed by the receptor antagonist mifepristone (2×10^−5 M). Glucocorticoid sensitivity of the human promoter was also assessed (dexamethasone 10^−4 M). All transfection reactions were normalized using the pβgal vector (Clontech, Mountain View Calif. USA).

NPHS2-Angptl4 TG rats = experiment: Albuminuria in NPHS2-Angptl4 TG rats given ManNAc in tap water; assay type: in vivo, rat
Excerpt: Transgenic rats were generated by microinjection of the digested DNA constructs into fertilized Sprague Dawley eggs (conducted at University of Michigan), implantation into pseudopregnant host Sprague Dawley females, and the resulting offsprings were genotyped by routine PCR and TaqMan genomic DNA real time PCR strategy using construct specific and control genomic prolactin primer and probe combinations. Two founder lines for podocyte specific expression were generated. Data from NPHS2-Angptl4 TG rat line 740 (5 copies of the transgene) and were stable over 4 generations, are presented. Urinary total protein was assessed using the Bradford method (Biorad laboratories, Hercules Calif. USA), and albuminuria by ELISA (Bethyl laboratories, Montgomery Tex. USA).
To make the study affordable, 7 homozygous male NPHS2-Angptl4 rats, age 3-3.5 months, with 15-25 fold higher albuminuria than wild type rats, were given ManNAc 1 mg/ml of tap water for 12 days (ManNAc phase), after which three were euthanized and the others returned to plain tap water for another 24 days (washout phase). 18 hour urine collections were done twice (Day- 12 and Day 0) before the study to confirm rising albuminuria, and periodically during the study. Another seven male NPHS2-Angptl4 rats of similar age were assessed for baseline albuminuria levels, given normal tap water (control group), three euthanized on Day 12 and others followed up to day 36, after which albuminuria was reassessed and the animals euthanized. Daily water intake of each rat was charted. At each euthanasia time point, kidneys were removed after perfusion, glomeruli isolated and processed for 2D gel electrophoresis. Albuminuria on Day 0 for each rats was denoted as 100% and all subsequent albuminuria values were expressed relative to Day 0.

Angptl4 [1] = experiment: 2D gel electrophoresis, Western blot and densitometry of glomerular Angptl4 from ManNAc fed NPHS2-Angptl4 TG rats; assay type: in vivo, rat
Excerpt: The following techniques are described in prior publications: Taqman real time PCR (26), confocal imaging (7), in situ hybridization (27), promoter—reporter studies (7), immunogold EM (26), glomerular extraction and processing for Western blot (26), assessment of charge by PEI method (28); the foregoing references are hereby incorproated by reference for such teachings. For alcian blue staining, the pH of the staining solution was adjusted to 2.5 using acetic acid, and 0.1% nuclear fast red solution was used as a counterstain. Densitometry of glomerular basement membrane alcian blue stain (20 glomeruli/rat, 3 rats/group) was assessed using Image-Pro software (Media Cybernetics, Inc., Bethesda Md., USA). Densitometry of 2D gel Western blots was assessed using Gel-Pro Analyzer software (Media Cybernetics, Inc.). For in situ hybridization, the digoxigenin labeled probe for rat Angptl4 included bp 1 to 548 of the ORF.
To study the effect of manNAc on the sialylation of recombinant protein, the Angptl4-HEK293 stable or pcDNA3.1-HEK293 control stable cell lines were grown to confluence in 15 cm dishes, washed twice with warm PBS, then incubated with serum free DMEM without phenol red with or without 25 mM manNAc for 48 hours, after which the media was harvested, concentrated, protein assay conducted, and loaded on the 2D gels (200 μg/gel). […]
To make the study affordable, 7 homozygous male NPHS2-Angptl4 rats, age 3-3.5 months, with 15-25 fold higher albuminuria than wild type rats, were given ManNAc 1 mg/ml of tap water for 12 days (ManNAc phase), after which three were euthanized and the others returned to plain tap water for another 24 days (washout phase). […] Another seven male NPHS2-Angptl4 rats of similar age were assessed for baseline albuminuria levels, given normal tap water (control group), three euthanized on Day 12 and others followed up to day 36, after which albuminuria was reassessed and the animals euthanized. […]

Angptl4 [2] = experiment: Sialylation of recombinant Angptl4 in Angptl4-HEK293 stable cell line incubated with ManNAc; assay type: cell-based, rat; details: ManNAc 25 mM, 48 hours
Method: To study the effect of manNAc on the sialylation of recombinant protein, the Angptl4-HEK293 stable or pcDNA3.1-HEK293 control stable cell lines were grown to confluence in 15 cm dishes, washed twice with warm PBS, then incubated with serum free DMEM without phenol red with or without 25 mM manNAc for 48 hours, after which the media was harvested, concentrated, protein assay conducted, and loaded on the 2D gels (200 μg/gel). Western blots of glomeruli or recombinant protein were conducted using rabbit anti-Angptl4 (full length) antibody, preimmune rabbit serum and lectins SNA I-HRP and MAA-HRP (E-Y laboratories, San Mateo Calif. USA).

[3] = test system: rats with puromycin aminonucleoside nephrosis (PAN model); experiment: Nephrotic syndrome parameters in puromycin aminonucleoside nephrosis (PAN model) rats treated with ManNAc; assay type: in vivo, rat; details: ManNAc 80 mg/Kg body weight in tap water from Day 4, Day 6
Method: FIGS. 7A-D show improvement in nephrotic syndrome parameters in ManNAc treated rats with puromycin aminonucleoside nephrosis (PAN model). In FIGS. 7A-7D, rats (n=5 rats/group) received a single intravenous injection of puromycin aminonucleoside (10 mg/100 gm), and were treated with ManNAC 80 mg/Kg body weight in tap water starting on Day 4, which coincides with the onset of proteinuria.
Rats (n=5 rats/group) received a single intravenous injection of puromycin aminonucleoside (10 mg/100 gm), and were treated with ManNAC 80 mg/Kg body weight in tap water starting on Day 4, which coincides with the onset of proteinuria. Data from Day 6 is shown.

[4] = test system: Zucker Diabetic Fatty rats; experiment: Proteinuria in Zucker Diabetic Fatty rats treated with ManNAc; assay type: in vivo, rat; details: 13 week old male rats, ManNAc in tap water, 70 mg/Kg up to 20 days and 140 mg/Kg, vs plain tap water
Method: 13 week old male Zucker Diabetic Fatty rats were treated with ManNAc in tap water or with plain tap water (n=4 rats/group) at 70 and 140 mg/Kg.
These high pI hyposialylated forms of Angptl4 are sensitive to sialic acid precursor therapy, including ManNAc and ManNAc derivatives. […] In FIG. 8C, 13 week old male Zucker diabetic fatty rats were treated with ManNAc in tap water or with plain tap water (n=4 rats/group).

CC#C[C@]1(O)CC[C@H]2[C@@H]3CCC4=CC(=O)CCC4=C3[C@@H](c3ccc(N(C)C)cc3)C[C@@]21C [mifepristone]
dexamethasone-induced decline in SEAP activity (mouse Angptl4 promoter): reversed

CC(=O)N[C@@H]1C(O)O[C@H](CO)[C@@H](O)[C@@H]1O (stereo partly drawn) [ManNAc, N-acetylmannosamine]
18 hour albuminuria, nadir on Day 12 (NPHS2-Angptl4 TG rats; 1 mg/ml ManNAc in tap water for 12 days, Day 0 = 100%): 59.4±3.3 % of baseline
albuminuria (effect in words) (NPHS2-Angptl4 TG rats; ManNAc 1 mg/ml in tap water for 12 days): reduced albuminuria; also recorded: significant reduction
reduction in albuminuria compared to baseline (NPHS2-Angptl4 TG rats; ManNAc 1 mg/ml in tap water, over a 12 day period): over 40%
albuminuria after washout (NPHS2-Angptl4 TG rats; after 12 days of washout following 12 days ManNAc 1 mg/ml): returned towards baseline values
reduction in albuminuria maintained (NPHS2-Angptl4 TG rats; pilot studies, heavily albuminuric NPHS2-Angptl4 rats, ManNAc 8 mg/ml tap water): 20-30%
albuminuria (effect in words) (NPHS2-Angptl4 TG rats; pilot studies, heavily albuminuric rats, increasing doses of ManNAc (1 to 8 mg/ml)): reduced albuminuria
percentage of neutral pI forms of Angptl4 (effect in words) (Angptl4 [1]; Day 12, ManNAc fed rats vs control TG rats): significant increase
sialylation of glomerular Angptl4 (reactivity with lectin SNA I) (Angptl4 [1]; Day 12, ManNAc treated rats): increased sialylation
neutral pI Angptl4 fraction (densitometry of Western blots, glomerular Angptl4) (Angptl4 [1]; rats euthanized on Day 12, ManNAc 1 mg/ml): 72.9 ± 1.4%
reactivity of Angptl4 to sialic acid binding lectin MAA (Angptl4 [2]): increased reactivity
sialylation of Angptl4 (Angptl4 [2]): increased sialylation
electrophoretic migration (pI) of secreted Angptl4 (Angptl4 [2]; serum free, concentrated supernatant): shift of the protein towards neutral pI; also recorded: shift from high pI forms
hypercholesterolemia (cholesterol) [3]: significant reduction
hypertriglyceridemia (triglycerides) [3]: significant reduction
plasma albumin levels [3]: significant improvement
proteinuria ([3]; vs control PAN rats): significant reduction
proteinuria [4]: Significant reduction
